{"source": "patent US20250032488A1", "about": "“METHODS OF TREATMENT USING LOU064” (NOVARTIS AG, priority 2021, published 2025)", "key": {"[1]": {"system": "LAD2 cells", "test": "FcER-induced mast cell degranulation in LAD2 cells", "type": "cell-based", "settings": "Homo sapiens, n=3, read-out: IC50, IgE/FcER-induced mast cell degranulation (β-tryptase)", "text": "Rationale and method: The human mastocytosis cell line LAD2 expresses FcERI and upon crosslinking of the receptor the cells degranulate and release inflammatory mediators like β-tryptase and hexosaminidase (Wernersson et al. 2014, Immunology; 14 (7): 478-94). The assay involves 4-hydroxy-3-iodo-5-nitrophenylacetic acid (NIP) haptenized bovine serum albumin (BSA) and the NIP-specific chimeric IgE antibody JW8 (Neuberger, M.S. et al. (1985), Nature 314 (6008), pp 268-70. doi: 10.1038/314268a0). The LAD2 cells were sensitized with JW8 IgE antibody and then incubated with serial compound dilutions for 30 minutes at 37° C. Then degranulation was triggered by adding haptenized NIP-BSA to crosslink the FcER. After one hour, supernatants were collected and analyzed for B-tryptase levels."}, "[2]": {"system": "subjects with CSU", "test": "52-week open label extension study in CSU: safety", "description": "In a 52-week open label extension study to evaluate the long-term safety and tolerability of LOU064 in eligible subjects with CSU who participated in the Phase 2b study the dose used was 100 mg b.i.d."}, "[3]": {"test": "Concentrations of LOU064 in blood, PCA study", "type": "in vivo, mice", "settings": "BALB/c, mouse, whole blood, oral, 2.5 hours after second dose, low-dose IgE sensitization, Mean ± SD (n = 5)", "method": "LOU064 was tested in a murine PCA model. The model used BALB/c mice aged 8-10 weeks of age. For passive sensitization with hapten-specific IgE, mice under isoflurane anesthesia were given an intradermal injection of 20 μl anti-DNP IgE in saline into the right ear and 20 μl of saline into the left ear. For FccR-specific PCA, mice were given a low dose of 3 ng anti-DNP IgE. For maximal PCA mice were given a high dose of 25 ng anti-DNP IgE. LOU064 was administered p.o. in a volume of 5 ml/kg body weight. A first dose was administered 4 hours after sensitization on the evening before challenge. The next morning, 2 hours prior to hapten challenge, mice were given a second oral dose of LOU064.\nMice were challenged with hapten 2 hours after the second dose by placing them into a heated chamber. Animals were then injected i.v. with 100 μg of the hapten DNP-HSA (dinitrophenyl-human serum albumin) in 200 μl of 2% Evans blue diluted in PBS. The mice were then returned to their cage for exactly 30 minutes. Thirty minutes later, animals were then anesthetized with isoflurane and bled retro-orbitally using EDTA coated blood collection tubes for analysis of compound exposure. The mice were then sacrificed by cervical dislocation. A 6 mm punch biopsy was taken from both the left and the right ear and placed into 100 μl of formalin. The skin biopsies were incubated at 80° C. overnight to extract the dye. Twenty-four hours later 80 μl of formalin solution were transferred to a clear flat bottom 96 well plate and the optical absorption was read at 620 nm. Analysis was performed by subtracting the left ear (saline) from the right ear (IgE) to determine how much dye was released into the skin tissue of the biopsy. Statistical significance was determined by ANOVA. Spleens were removed for BTK occupancy analysis.\nAnalysis of blood level: Blood samples were taken as denoted and compound measurement was performed. Blood samples were spiked with a structurally similar internal standard mixed with acetonitrile (4 volumes) and centrifuged at ˜ 4000 rpm (4° C.). Supernatant was then transferred into a microtiter plate. An aliquot of each sample was injected into an LC-MS/MS system for determination of concentrations of the parent molecule.\nThe concentrations of LOU064 present in mouse blood, 2.5 hours after the second compound dose are shown for the low-dose IgE sensitization in Table 1."}, "[4]": {"system": "PBMC-derived mast cells", "test": "FcER-induced degranulation of PBMC-derived mast cells", "type": "cell-based", "settings": "Homo sapiens, Mast cell; n=7 donors; read-out: IC50, degranulation of primary human PBMC-derived mast cells (β-tryptase)", "text": "cells (PBMC)-derived mast cells Rationale and method: Primary human mast cells were derived from CD34-positive progenitor cells isolated from PBMC ((Neuberger, M.S. et al. (1985), Nature 314 (6008), pp 268-70. doi: 10.1038/314268a0). Blood from healthy volunteers was provided under informed consent and collected through the Novartis Tissue Donor Program in accordance with the Swiss Human Research Act and approval of the responsible ethic committee (Ethikkommission Nordwest-und Zentralschweiz). Briefly, CD34-positive cells were isolated from peripheral blood by positive selection and cultured in medium containing SCF, IL-6 and IL-3. After a 6 week differentiation culture, mast cells were harvested and characterized phenotypically for expression of c-Kit (CD117) and FcERI. The degranulation is based on NIP haptenized BSA and the NIP-specific chimeric IgE antibody JW8 (described in RD-2013-00412). The mast cells were sensitized with JW8 IgE antibody and then incubated with serial compound dilutions for 30 minutes at 37° C. Then degranulation was triggered by adding haptenized NIP-BSA to crosslink the FcER. After one hour, supernatants were collected and analyzed for β-tryptase levels."}, "[5]": {"test": "Co-administration with oral contraceptives", "type": "in vivo", "text": "Therefore, in a preferred embodiment, LOU064 is co-administered with oral contraceptives."}, "[6]": {"system": "FccR1 mediated basophil activation", "settings": "cited from earlier work"}, "[7]": {"system": "patients with CSU", "test": "Phase 2b trial in CSU: efficacy", "type": "in vivo, human", "settings": "25 mg b.i.d. regimen, 12 weeks", "method": "In a Phase 2b, randomized, double-blind, placebo-controlled trial evaluating the efficacy and safety of remibrutinib over 12 weeks in patients inadequately controlled by H1-antihistamines, with at least moderately active CSU, patients received remibrutinib 10 mg q.d. (once daily), 35 mg q.d., 100 mg q.d., 10 mg b.i.d. (twice daily), 25 mg b.i.d., 100 mg b.i.d., or placebo (1:1:1:1:1:1:1 ratio)."}, "[8]": {"settings": "100 mg B.I.D., N = 100, interim cut off 31 Aug. 2020"}, "[9]": {"settings": "ES, 100 mg b.i.d., N = 183, median 35.14 wks, listed as remibrutinib"}}, "note": "Where two headings read alike, the source gives them in different places."}
{"molecule": "C=CC(=O)N(C)CCOc1c(N)ncnc1-c1cc(F)cc(NC(=O)c2ccc(C3CC3)cc2F)c1C", "note": "[LOU064, N-(3-(6-amino-5-(2-(N-methylacrylamido)ethoxy)pyrimidin-4-yl)-5-fluoro-2-methylphenyl)-4-cyclopropyl-2-fluorobenzamide]", "values": [{"measurement": "IC50", "setting": "[1]", "value": 7, "unit": "nM"}, {"measurement": "Death", "setting": "[2]; [8]", "value": 0, "unit": "n"}, {"measurement": "Discontinued study due to an SAE(s)", "setting": "[2]; [8]", "value": 0, "unit": "n"}, {"measurement": "Discontinued study due to any AE(s)", "setting": "[2]; [8]", "value": 0, "unit": "n"}, {"measurement": "AE preferred term diarrhea", "setting": "[2]; 100 mg b.i.d., N = 100 interim", "value": 4, "unit": "%"}, {"measurement": "AE preferred term dizziness", "setting": "[2]; 100 mg b.i.d., N = 100 interim", "value": 3, "unit": "%"}, {"measurement": "AE preferred term gastroenteritis", "setting": "[2]; 100 mg b.i.d., N = 100 interim", "value": 3, "unit": "%"}, {"measurement": "AE preferred term headache", "setting": "[2]; 100 mg b.i.d., N = 100 interim", "value": 6, "unit": "%"}, {"measurement": "Bleeding events or events under SOC Blood and lymphatic system disorders", "setting": "[2]; 100 mg b.i.d., N = 100 interim", "value": "no bleeding events"}, {"measurement": "SOC Infections and infestations", "setting": "[2]; 100 mg b.i.d., N = 100 interim", "value": 14, "unit": "%"}, {"measurement": "SOC Skin and subcutaneous tissue disorders", "setting": "[2]; 100 mg b.i.d., N = 100 interim", "value": 13, "unit": "%"}, {"measurement": "Safety signal", "setting": "[2]; 100 subjects, median exposure 17.86 weeks", "value": "No safety signal"}, {"measurement": "ECG findings or QT of >500 ms", "setting": "[2]; ES and CS, any patient", "value": "no significant ECG findings or QT of >500 ms"}, {"measurement": "Deaths", "setting": "[2]; ES, 100 mg b.i.d., N = 183", "value": "no deaths"}, {"measurement": "Incidence of AESI bleeding", "setting": "[2]; ES, 100 mg b.i.d., N = 183", "value": 4.4, "unit": "%"}, {"measurement": "Incidence of AESI cytopenias", "setting": "[2]; ES, 100 mg b.i.d., N = 183", "value": 0.5, "unit": "%"}, {"measurement": "Incidence of AESI infections", "setting": "[2]; ES, 100 mg b.i.d., N = 183", "value": 23, "unit": "%"}, {"measurement": "Skin and subcutaneous tissue disorders (AEs by primary system organ class)", "setting": "[2]; ES, 100 mg b.i.d., N = 183, median 35.14 wks", "value": 32, "unit": "n"}, {"measurement": "Discontinued study treatment due to AE(s)", "setting": "[2]; [9]", "value": 6, "unit": "n"}, {"measurement": "Headache (AEs by PT)", "setting": "[2]; [9]", "value": 6.6, "unit": "%"}, {"measurement": "Infections and infestations (AEs by primary system organ class)", "setting": "[2]; [9]", "value": 23.0, "unit": "%"}, {"measurement": "Patients with SAE(s)", "setting": "[2]; [9]", "value": 4, "unit": "n"}, {"measurement": "Skin and subcutaneous tissue disorders (AEs by primary system organ class)", "setting": "[2]; [9]", "value": 17.5, "unit": "%"}, {"measurement": "Patients with newly occurring isolated ALT>3xULN", "setting": "[2]; ES, normalized within 4 weeks", "value": 1, "unit": "patient"}, {"measurement": "concentration at 2.5 h", "setting": "[3]; 3 mg/Kg p.o.", "value": "7 ± 2", "unit": "nM"}, {"measurement": "concentration at 2.5 h", "setting": "[3]; 10 mg/Kg p.o.", "value": "35 ± 14", "unit": "nM"}, {"measurement": "concentration at 2.5 h", "setting": "[3]; 30 mg/Kg p.o.", "value": "111 ± 56", "unit": "nM"}, {"measurement": "concentration at 2.5 h", "setting": "[3]; 100 mg/Kg p.o.", "value": "488 ± 371", "unit": "nM"}, {"measurement": "IC50", "setting": "[4]", "value": 5.7, "unit": "nM"}, {"measurement": "Impact on exposure and efficacy of oral contraceptives (ethinylestradiol or levonorgestrel)", "setting": "[5]", "value": "without a major impact"}, {"measurement": "Trough level inhibition of CD63", "setting": "[6]; MAD, 10 mg q.d., last day of dosing", "value": 80, "unit": "%"}, {"measurement": "Inhibition of CD203c+ basophils", "setting": "[6]; MAD, 200 mg b.i.d", "value": 67, "unit": "%"}, {"measurement": "Inhibition of CD203c+ basophils", "setting": "[6]; MAD, 400 mg q.d.", "value": 63, "unit": "%"}, {"measurement": "Inhibition of blood basophil activation measured by CD63 expression", "setting": "[6]; MAD, daily dose greater than or equal to 50 mg, day 1-12 and several days beyond", "value": "full inhibition"}, {"measurement": "Trough inhibition of CD63", "setting": "[6]; MAD, greater than or equal to 100 mg q.d., last day of dosing", "value": "greater than 97%"}, {"measurement": "Inhibition of CD203c+ basophil activation marker", "setting": "[6]; SAD, 200 mg cohort, at 8h", "value": "up to 79.4%"}, {"measurement": "Inhibition of basophil activation measured by CD63", "setting": "[6]; SAD, doses of 60 mg", "value": "> 89", "unit": "%"}, {"measurement": "Inhibition of basophil activation measured by CD63", "setting": "[6]; SAD, higher doses, 24 h post dose", "value": "~100", "unit": "%"}, {"measurement": "Efficacy in CSU", "setting": "[7]", "value": "particularly effective"}]}
